# Source: publication PMC6154694, “Absorption, Metabolic Stability, and Pharmacokinetics of Ginger Phytochemicals” (Molecules : A Journal of Synthetic Chemistry and Natural …, 2017)
# Assays:
# [1] = Mouse pharmacokinetic study of oral GE with and without ketoconazole, plasma with and without β-glucuronidase treatment; type: in vivo, male mice (C57BL6J); conditions: for Concentration Ratio (Total/Free) of GE Phenolics: GE administered group; for Concentration Ratio (Total/Free) of GE Phenolics / concentration at 0 h / concentration at 0.087 h / concentration at 0.167 h / concentration at 0.25 h / concentration at 0.5 h / concentration at 1 h / concentration at 2 h / concentration at 3 h / concentration at 4 h / concentration at 6 h / concentration at 8 h / concentration at 12 h: mouse plasma; for AUC(0-t) / Cmax / Tmax / concentration at 0 h / concentration at 0.087 h / concentration at 0.167 h / concentration at 0.25 h / concentration at 0.5 h / concentration at 1 h / concentration at 2 h / concentration at 3 h / concentration at 4 h / concentration at 6 h / concentration at 8 h / concentration at 12 h: male, C57BL6J; for AUC(0-t) / Cmax / Tmax: mouse, plasma, po, 250 mg/kg
# Description: A solution formulation of GE was prepared by using 5% ethanol, 5% Tween 80, 40% polyethylene glycol, and 50% corn oil. The dose volume was 10 mL/kg and the dose administered was 250 mg/kg GE.
# Pharmacokinetic study in male mice (C57BL6J, Harlan Laboratories, Indianapolis, IN, USA) was run with 36 animals in each group at a GE dose of 250 mg/kg with a dose volume of 10 mL/kg. One group was given GE alone and in the second group GE was co-administered with KTZ (50 mg/kg). A terminal sampling design was used to collect blood samples at 0 (pre-dose), 0.08, 0.16, 0.25, 0.5, 1, 2, 3, 4, 6, 8, and 12 h. At each time, 1 mL of blood was collected in ethylenediaminetetraacetic acid di-potassium salt (K2EDTA) tubes (BD Biosciences, Franklin Lakes, NJ, USA). Plasma was separated by centrifugation of samples at 4000 rpm for 10 min and stored below −60 °C till bioanalysis. All experiments were performed with approval from the Institutional Animal Care and Use Committee (IACUC, approval code: A14031). All animals were acclimatized for five days before dosing in the experimental area. Food and water was provided ad libitum throughout the study period. Animals were marked and housed (three per cage, n = 36 per group) in polypropylene cages and maintained in controlled environmental conditions with 12 h light and dark cycles. The temperature and humidity of the room was maintained between 22 ± 3 °C and 30% to 50%, respectively, and approximately 10–12 fresh air change cycles per hour.
# To confirm the presence of GE glucuronide conjugates, plasma (100 μL) was treated with βgd (20 μL, 500 units) and incubated at 37 °C for 1 h. Each sample was analyzed twice with and without β-gd treatment. Samples without gde treatment were diluted with 20 μL of buffer. Total (conjugated + free) and free ginger phenolics data were reported following bioanalysis.
# All in vitro and in vivo samples were processed by protein precipitation method. An aliquot (100 μL) of the sample was spiked with 200 μL of acetonitrile containing dihydrocapsaicin as internal standard (IS) and vortex mixed for 3 min. The tubes were centrifuged at 12,000 rpm for 10 min and an aliquot of supernatant was transferred into autosampler vials for analysis. The stock solutions of 6G, 8G, 10G, and 6S were prepared in ACN/water (70:30) at 1 mg/mL. A calibration curve (CC) range of 2–2000 ng/mL was employed for the quantification of analytes and IS concentration was 150 ng/mL for each analysis. The CC consisted of blank, blank with IS and seven non-zero calibration standards. The calibration standards were within ±15% of the nominal concentration and lower limit of quantification was within ±20% of nominal. All samples were analyzed using liquid chromatography tandem mass spectrometry (LC-MS/MS) method (Agilent 6410 series, Santa Clara, CA, USA). A positive ionization mode with multiple reaction monitoring (MRM, m/z Q1/Q3) of 6G (m/z 277.1/177.1, retention time (RT) 2.0 min), 8G (m/z 305.1/177.1, RT 4.0 min), 10G (m/z 333.1/177.1, RT 7.7 min), 6S (m/z 277.1/137.1, RT 5.1 min), and IS (m/z 308.2/137.1, RT 3.4 min) was employed. The ion spray voltage was set at 3500 V, ionization temperature was set to 300 °C and drying gas flow rate was 10 L/min. Data acquisition and quantitation were performed using Mass Hunter software (Agilent Technologies, Wilmington, DE, USA). Separation was achieved using HP1100 series LC (Agilent Technologies) with an Agilent Zorbax reversed-phase (SB-C18, 2.1 × 50 mm, 5.0 μm) column. A gradient method was employed to separate the individual GE phenolics using mobile phase A (0.1% formic acid in water) and mobile phase B (Acetonitrile). The gradient elution method with 50% B at 0 min, 90% B at 5 min, held for 2.1 min, back to 50% B at 7.1 min with a flow rate of 0.2 mL/min. An injection volume of 2 μL was used for analysis. […]
# [2] = Liver microsomal stability, statements across species; type: in vitro ADME; conditions: CD1 (mouse), IGS Sprague-Dawley (rat), Beagle (dog), human, pooled liver microsomes, pH 7.4
# Description: (§1) Pooled liver microsomes from CD1 mouse, IGS Sprague-Dawley rat, Beagle dog, and mixed gender human were used for assays. Incubations (1 mL) consisted of liver microsomes (0.5 mg/mL), NADPH (1 mM) and 100 mM sodium phosphate buffer (pH 7.4). Following pre-incubation (10 min, 37 °C), reactions were initiated by spiking ACN/DMSO (80:20) stock solutions of GE phenolics (5 μL, 10 μM). Samples (100 μL) were withdrawn at 0, 5, 10, 15, 20 and 30 min and quenched with 200 μL acetonitrile containing internal standard. Concomitant NADPH-free control incubations were prepared similarly.
# [3] = Liver microsomal stability, mouse; type: in vitro ADME, CD1 mouse; conditions: protein 0.5 mg/mL
# Description: as §1
# [4] = 250 mg/kg GE + 50 mg/kg KTZ oral, +KTZ −βgd
compound,measurement,setting,value
"CCCCC/C=C/C(=O)CCc1ccc(O)c(OC)c1 [6S, 6-shogaol]",AUClast Ratio,"[1]; +KTZ +βgd, reference GE group co-administered with KTZ untreated with βgd",14
same,AUClast Ratio,"[1]; +KTZ +βgd, reference GE group untreated with βgd",110
same,AUClast Ratio,"[1]; +KTZ −βgd, reference GE group untreated with βgd",8
same,Concentration Ratio (Total/Free) of GE Phenolics,[1]; 0 h,0
same,Concentration Ratio (Total/Free) of GE Phenolics,[1]; 0.087 h,48
same,Concentration Ratio (Total/Free) of GE Phenolics,[1]; 0.167 h,19
same,Concentration Ratio (Total/Free) of GE Phenolics,[1]; 0.25 h,0
same,Concentration Ratio (Total/Free) of GE Phenolics,[1]; 0.5 h,83
same,Concentration Ratio (Total/Free) of GE Phenolics,[1]; 1 h,1
same,Concentration Ratio (Total/Free) of GE Phenolics,[1]; 2 h,16
same,Concentration Ratio (Total/Free) of GE Phenolics,[1]; 3 h,0
same,Concentration Ratio (Total/Free) of GE Phenolics,[1]; 4 h,0
same,Concentration Ratio (Total/Free) of GE Phenolics,[1]; 6 h,0
same,Concentration Ratio (Total/Free) of GE Phenolics,[1]; 8 h,0
same,Concentration Ratio (Total/Free) of GE Phenolics,[1]; 12 h,0
same,AUC(0-t),"[1]; 250 mg/kg GE oral, −βgd",1.92 ng·h/mL
same,Cmax,"[1]; 250 mg/kg GE oral, −βgd",3.88 ng/mL
same,Tmax,"[1]; 250 mg/kg GE oral, −βgd",10 min
same,AUC(0-t),[1]; [4],15.1 ng·h/mL
same,Cmax,[1]; [4],12.4 ng/mL
same,Tmax,[1]; [4],60 min
same,concentration at 0 h,"[1]; 250 mg/kg GE oral, 0 h, −βgd",0 ng/mL
same,concentration at 0.087 h,"[1]; 250 mg/kg GE oral, 0.087 h, −βgd",3.17 ± 2.56 ng/mL
same,concentration at 0.167 h,"[1]; 250 mg/kg GE oral, 0.167 h, −βgd",4.04 ± 5.37 ng/mL
same,concentration at 0.25 h,"[1]; 250 mg/kg GE oral, 0.25 h, −βgd",0.39 ± 0.55 ng/mL
same,concentration at 0.5 h,"[1]; 250 mg/kg GE oral, 0.5 h, −βgd",1.26 ± 1.78 ng/mL
same,concentration at 1 h,"[1]; 250 mg/kg GE oral, 1 h, −βgd",0.67 ± 0.95 ng/mL
same,concentration at 2 h,"[1]; 250 mg/kg GE oral, 2 h, −βgd",0.38 ± 0.54 ng/mL
same,concentration at 3 h,"[1]; 250 mg/kg GE oral, 3 h, −βgd",0 ng/mL
same,concentration at 4 h,"[1]; 250 mg/kg GE oral, 4 h, −βgd",0 ng/mL
same,concentration at 6 h,"[1]; 250 mg/kg GE oral, 6 h, −βgd",0 ng/mL
same,concentration at 8 h,"[1]; 250 mg/kg GE oral, 8 h, −βgd",0.05 ± 0.08 ng/mL
same,concentration at 12 h,"[1]; 250 mg/kg GE oral, 12 h, −βgd",0.37 ± 0.23 ng/mL
same,concentration at 0 h,"[1]; 250 mg/kg GE with 50 mg/kg ketoconazole oral, 0 h, −βgd",0 ng/mL
same,concentration at 0.087 h,"[1]; 250 mg/kg GE with 50 mg/kg ketoconazole oral, 0.087 h, −βgd",0.05 ± 0.07 ng/mL
same,concentration at 0.167 h,"[1]; 250 mg/kg GE with 50 mg/kg ketoconazole oral, 0.167 h, −βgd",0.94 ± 1.33 ng/mL
same,concentration at 0.25 h,"[1]; 250 mg/kg GE with 50 mg/kg ketoconazole oral, 0.25 h, −βgd",0 ng/mL
same,concentration at 0.5 h,"[1]; 250 mg/kg GE with 50 mg/kg ketoconazole oral, 0.5 h, −βgd",18600 ng/mL
same,concentration at 1 h,"[1]; 250 mg/kg GE with 50 mg/kg ketoconazole oral, 1 h, −βgd",12.5 ± 17.6 ng/mL
same,concentration at 2 h,"[1]; 250 mg/kg GE with 50 mg/kg ketoconazole oral, 2 h, −βgd",75900 ng/mL
same,concentration at 3 h,"[1]; 250 mg/kg GE with 50 mg/kg ketoconazole oral, 3 h, −βgd",2.33 ± 3.3 ng/mL
same,concentration at 4 h,"[1]; 250 mg/kg GE with 50 mg/kg ketoconazole oral, 4 h, −βgd",0 ng/mL
same,concentration at 6 h,"[1]; 250 mg/kg GE with 50 mg/kg ketoconazole oral, 6 h, −βgd",0 ng/mL
same,concentration at 8 h,"[1]; 250 mg/kg GE with 50 mg/kg ketoconazole oral, 8 h, −βgd",0 ng/mL
same,concentration at 12 h,"[1]; 250 mg/kg GE with 50 mg/kg ketoconazole oral, 12 h, −βgd",0 ng/mL
same,half-life at 10 µM,[2],< 30 min
same,"remaining at 0.5 h, 10 µM","[3]; CD1, pooled liver microsomes, pH 7.4, substrate 10 µM, n = 2, read-out: % Remaining at 30 min",3%
same,Intrinsic Clearance,"[3]; mouse liver microsomes, substrate 10 µM, 45 mg protein/g liver",15.7 mL/min/g Liver
